Test results as given in ChEMBL document CHEMBL5143597, “Design and synthesis of novel spirocyclic carboxylic acids as potent and orally bioavailable DGAT1 inhibitors and their biological evaluation” (Bioorg Med Chem Lett, 2022).

Columns and labels:
[1] = Drug distribution in C57BL/6 mouse adipose tissue 10 mg/kg, po and measured at 1 hrs post dose by LC-MS/MS analysis; format: ADME, organism-based; conditions: read-out: Ct
[2] = Plasma protein binding in rat; format: ADME, cell-free; conditions: read-out: PPB
[3] = Tmax in C57BL/6 mouse at 5 mg/kg, iv or 10 mg/kg, po and measured up to 24 hrs by LC-MS/MS analysis; format: ADME, organism-based; conditions: in vivo
[4] = Metabolic stability in mouse liver microsomes assessed as parent compound remaining at 1 uM and measured at 30 mins by LC-MS/MS analysis; format: ADME, Microsome; conditions: read-out: Stability
[5] = AUC in Wistar rat at 3 mg/kg, iv or 10 mg/kg, po and measured up to 24 hrs by LC-MS/MS analysis; format: ADME, organism-based; set-up: dose 3 mg/kg, time < 24 hrs, route iv; conditions: in vivo
[6] = Drug distribution in C57BL/6 mouse plasma 10 mg/kg, po and measured at 1 hrs post dose by LC-MS/MS analysis; format: ADME, organism-based
[7] = Clearance in Wistar rat at 3 mg/kg, iv or 10 mg/kg, po and measured up to 24 hrs by LC-MS/MS analysis; format: ADME, organism-based; conditions: in vivo
[8] = Cmax in C57BL/6 mouse at 5 mg/kg, iv or 10 mg/kg, po and measured up to 24 hrs by LC-MS/MS analysis; format: ADME, organism-based; set-up: dose 5 mg/kg, time < 24 hrs, route iv; conditions: in vivo
[9] = Metabolic stability in rat liver microsomes assessed as parent compound remaining at 1 uM and measured at 30 mins by LC-MS/MS analysis; format: ADME, Microsome; conditions: read-out: Stability
[10] = Plasma protein binding in mouse; format: ADME, cell-free; conditions: read-out: PPB (converted)
[11] = Half life in C57BL/6 mouse at 5 mg/kg, iv or 10 mg/kg, po and measured up to 24 hrs by LC-MS/MS analysis; format: ADME, organism-based; conditions: in vivo
[12] = Drug distribution in Wistar rat liver 10 mg/kg, po and measured at 1 hrs post dose by LC-MS/MS analysis; format: ADME, organism-based; conditions: read-out: Ct
[13] = Drug distribution in Wistar rat liver 10 mg/kg, po and measured at 2 hrs post dose by LC-MS/MS analysis; format: ADME, organism-based; conditions: read-out: Ct
[14] = Cmax in Wistar rat at 3 mg/kg, iv or 10 mg/kg, po and measured up to 24 hrs by LC-MS/MS analysis; format: ADME, organism-based; set-up: dose 3 mg/kg, time < 24 hrs, route iv; conditions: in vivo
[15] = Drug distribution in Wistar rat adipose tissue 10 mg/kg, po and measured at 1 hrs post dose by LC-MS/MS analysis; format: ADME, organism-based; conditions: read-out: Ct
[16] = Drug distribution in C57BL/6 mouse brain 10 mg/kg, po and measured at 2 hrs post dose by LC-MS/MS analysis; format: ADME, organism-based; conditions: read-out: Ct
[17] = Drug distribution in Wistar rat adipose tissue 10 mg/kg, po and measured at 8 hrs post dose by LC-MS/MS analysis; format: ADME, organism-based; conditions: read-out: Ct
[18] = Drug distribution in Wistar rat plasma 10 mg/kg, po and measured at 2 hrs post dose by LC-MS/MS analysis; format: ADME, organism-based
[19] = Oral bioavailability in Wistar rat at 10 mg/kg or 3 mg/kg, iv and measured up to 24 hrs by LC-MS/MS analysis; format: ADME, organism-based; conditions: in vivo
[20] = Drug distribution in C57BL/6 mouse skeletal muscle 10 mg/kg, po and measured at 1 hrs post dose by LC-MS/MS analysis; format: ADME, organism-based, Skeletal muscle tissue; conditions: read-out: Ct
[21] = Drug distribution in C57BL/6 mouse brain 10 mg/kg, po and measured at 8 hrs post dose by LC-MS/MS analysis; format: ADME, organism-based; conditions: read-out: Ct
[22] = Tmax in Wistar rat at 3 mg/kg, iv or 10 mg/kg, po and measured up to 24 hrs by LC-MS/MS analysis; format: ADME, organism-based; conditions: in vivo
hERG (KCNH2) = hERG (KCNH2) (Homo sapiens, UniProt Q12809); assay: Displacement of [3H]astemizole from human ERG expressed in HEK293 cell membrane at 30 uM for 2 hrs by Radiometric displacement assay; format: toxicity; conditions: HEK293 cell membranes that express hERG, probe [3H]astemizole
Chain of hERG (KCNH2) (Q12809 whole entry): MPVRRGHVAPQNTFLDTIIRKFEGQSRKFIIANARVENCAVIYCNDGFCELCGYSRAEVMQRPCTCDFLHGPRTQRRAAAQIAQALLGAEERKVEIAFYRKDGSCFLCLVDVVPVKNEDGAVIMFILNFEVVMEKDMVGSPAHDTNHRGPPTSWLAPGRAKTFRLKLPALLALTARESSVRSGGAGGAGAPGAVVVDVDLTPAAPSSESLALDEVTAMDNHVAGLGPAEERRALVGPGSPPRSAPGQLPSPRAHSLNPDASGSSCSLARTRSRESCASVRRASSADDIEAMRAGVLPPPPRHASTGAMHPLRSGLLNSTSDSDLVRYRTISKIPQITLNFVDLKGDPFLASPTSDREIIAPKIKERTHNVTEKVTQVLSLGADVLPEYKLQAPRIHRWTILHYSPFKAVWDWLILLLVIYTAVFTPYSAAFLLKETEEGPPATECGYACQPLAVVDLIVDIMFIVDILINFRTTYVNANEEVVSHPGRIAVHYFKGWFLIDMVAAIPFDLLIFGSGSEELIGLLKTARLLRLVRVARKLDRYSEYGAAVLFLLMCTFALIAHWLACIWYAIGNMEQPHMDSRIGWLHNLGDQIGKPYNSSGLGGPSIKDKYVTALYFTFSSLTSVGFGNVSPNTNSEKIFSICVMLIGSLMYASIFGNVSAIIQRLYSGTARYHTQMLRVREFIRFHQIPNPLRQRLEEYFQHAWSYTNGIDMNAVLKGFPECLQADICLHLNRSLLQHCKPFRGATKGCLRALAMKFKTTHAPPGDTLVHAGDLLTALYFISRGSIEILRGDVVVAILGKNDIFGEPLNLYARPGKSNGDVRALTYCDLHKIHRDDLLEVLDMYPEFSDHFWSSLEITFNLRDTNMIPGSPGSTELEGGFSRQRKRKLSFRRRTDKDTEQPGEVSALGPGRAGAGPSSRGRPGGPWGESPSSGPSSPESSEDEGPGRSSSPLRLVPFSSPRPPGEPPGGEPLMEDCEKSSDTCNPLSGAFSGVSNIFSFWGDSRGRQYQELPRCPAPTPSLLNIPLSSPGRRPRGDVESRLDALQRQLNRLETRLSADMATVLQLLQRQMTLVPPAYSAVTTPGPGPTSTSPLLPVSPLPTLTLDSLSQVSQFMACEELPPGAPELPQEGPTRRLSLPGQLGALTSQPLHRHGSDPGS

[23] = Volume of distribution at steady state in C57BL/6 mouse at 5 mg/kg, iv or 10 mg/kg, po and measured up to 24 hrs by LC-MS/MS analysis; format: ADME, organism-based; conditions: in vivo, read-out: Vdss
[24] = Apparent permeability across apical to basolateral side in MDCK cells at 2.5 uM for 90 mins; format: ADME, cell-based, Canis lupus familiaris; conditions: dog
[25] = Clearance in C57BL/6 mouse at 5 mg/kg, iv r 10 mg/kg, po and measured up to 24 hrs by LC-MS/MS analysis; format: ADME, organism-based; conditions: in vivo
[26] = Drug distribution in Wistar rat plasma 10 mg/kg, po and measured at 1 hrs post dose by LC-MS/MS analysis; format: ADME, organism-based
[27] = Drug distribution in C57BL/6 mouse skeletal muscle 10 mg/kg, po and measured at 8 hrs post dose by LC-MS/MS analysis; format: ADME, organism-based, Skeletal muscle tissue; conditions: read-out: Ct
[28] = Drug distribution in C57BL/6 mouse plasma 10 mg/kg, po and measured at 8 hrs post dose by LC-MS/MS analysis; format: ADME, organism-based
[29] = Drug distribution in C57BL/6 mouse skeletal muscle 10 mg/kg, po and measured at 2 hrs post dose by LC-MS/MS analysis; format: ADME, organism-based, Skeletal muscle tissue; conditions: read-out: Ct
[30] = AUC in C57BL/6 mouse at 5 mg/kg, iv or 10 mg/kg, po and measured up to 24 hrs by LC-MS/MS analysis; format: ADME, organism-based; set-up: time < 24 hrs, dose 5 mg/kg, route iv; conditions: in vivo
[31] = Drug distribution in C57BL/6 mouse adipose tissue 10 mg/kg, po and measured at 8 hrs post dose by LC-MS/MS analysis; format: ADME, organism-based; conditions: read-out: Ct
[32] = Oral bioavailability in C57BL/6 mouse 10 mg/kg or 5 mg/kg, iv and measured up to 24 hrs by LC-MS/MS analysis; format: ADME, organism-based; conditions: in vivo
[33] = Drug distribution in C57BL/6 mouse liver 10 mg/kg, po and measured at 2 hrs post dose by LC-MS/MS analysis; format: ADME, organism-based; conditions: read-out: Ct
[34] = Drug distribution in C57BL/6 mouse liver 10 mg/kg, po and measured at 1 hrs post dose by LC-MS/MS analysis; format: ADME, organism-based; conditions: read-out: Ct
[35] = Drug distribution in C57BL/6 mouse brain 10 mg/kg, po and measured at 1 hrs post dose by LC-MS/MS analysis; format: ADME, organism-based; conditions: read-out: Ct
[36] = Half life in Wistar rat at 3 mg/kg, iv or 10 mg/kg, po and measured up to 24 hrs by LC-MS/MS analysis; format: ADME, organism-based; conditions: in vivo
[37] = Drug distribution in C57BL/6 mouse liver 10 mg/kg, po and measured at 8 hrs post dose by LC-MS/MS analysis; format: ADME, organism-based; conditions: read-out: Ct
[38] = Volume of distribution at steady state in Wistar rat at 3 mg/kg, iv or 10 mg/kg, po and measured up to 24 hrs by LC-MS/MS analysis; format: ADME, organism-based; conditions: in vivo, read-out: Vdss
[39] = Drug distribution in Wistar rat plasma 10 mg/kg, po and measured at 8 hrs post dose by LC-MS/MS analysis; format: ADME, organism-based
[40] = Metabolic stability in human liver microsomes assessed as parent compound remaining at 1 uM and measured at 30 mins by LC-MS/MS analysis; format: ADME, Microsome; conditions: read-out: Stability
[41] = Drug distribution in Wistar rat adipose tissue 10 mg/kg, po and measured at 2 hrs post dose by LC-MS/MS analysis; format: ADME, organism-based; conditions: read-out: Ct
[42] = Drug distribution in C57BL/6 mouse adipose tissue 10 mg/kg, po and measured at 2 hrs post dose by LC-MS/MS analysis; format: ADME, organism-based; conditions: read-out: Ct
[43] = Drug distribution in Wistar rat liver 10 mg/kg, po and measured at 8 hrs post dose by LC-MS/MS analysis; format: ADME, organism-based; conditions: read-out: Ct
[44] = Drug distribution in C57BL/6 mouse plasma 10 mg/kg, po and measured at 2 hrs post dose by LC-MS/MS analysis; format: ADME, organism-based

O=C(Nc1ccc(N2CCC3(CC2)CC(C(=O)O)C3)nc1)c1nnc(Nc2ccc(F)c(F)c2)o1
concentration at 1 h [1]: 270 nM | fraction unbound [2]: 0.01 | Tmax [3]: 30 min | remaining at 0.5 h, 1 µM [4]: 94% | AUC at 24 h [5]: 47 µM·h | concentration at 1 h [6]: 1900 nM | clearance [7]: 2.3 mL/min/kg | Cmax [8]: 4.5 µM | remaining at 0.5 h, 1 µM [9]: 92% | fraction unbound [10]: 0.02 | half-life [11]: 60 min | concentration at 1 h [12]: 105 µM | concentration at 2 h [13]: 72 µM | Cmax [14]: 57 µM | concentration at 1 h [15]: 1890 nM | concentration at 2 h [16]: 260 nM | concentration at 8 h [17]: 340 nM | concentration at 2 h [18]: 47 µM | bioavailability [19]: 92% | concentration at 1 h [20]: 170 nM | concentration at 8 h [21]: 110 nM | Tmax [22]: 30 min | inhibition at 2 h, 30 µM (hERG (KCNH2)): 22% | Vd [23]: 2.5 L/kg | Papp A→B at 1.5 h, 2.5 µM [24]: 2.8 ×10⁻⁶ cm/s | clearance [25]: 58 mL/min/kg | concentration at 1 h [26]: 37 µM | concentration at 8 h [27]: 20 nM | concentration at 8 h [28]: 40 nM | concentration at 2 h [29]: 180 nM | AUC at 24 h [30]: 2.9 µM·h | concentration at 8 h [31]: 80 nM | bioavailability [32]: 97% | concentration at 2 h [33]: 96 µM | concentration at 1 h [34]: 153 µM | concentration at 1 h [35]: 360 nM | half-life [36]: 210 min | concentration at 8 h [37]: 5.3 µM | Vd [38]: 0.3 L/kg | concentration at 8 h [39]: 4 µM | remaining at 0.5 h, 1 µM [40]: 89% | concentration at 2 h [41]: 2500 nM | concentration at 2 h [42]: 140 nM | concentration at 8 h [43]: 32 µM | concentration at 2 h [44]: 1160 nM
